“Also recorded” adds a separate entry of the source. Where two headings read alike, the source gives them in different places.
Tests used:
[1] = test system: NCI-H929; experiment: cells
Experimental: For cell survival assays, cells were plated in 96-well culture plates (BD Biosciences, San Jose, Calif.), 100,000 cells/well with 200 μl, of culture media. The effect of the drugs on cell survival was assessed, for example, by measuring 3-(4,5-dimethylthiazol-2-yl)-5-(3-carboxymethoxyphenyl)-2-(4-sulphophenyl)-2H-tetrazolium, inner salt (MTS) (Promega, Madison, Wis.) dye absorbance of viable cells by adding 40 μL of 5 mg/mL MTS to each well for the last 4 hours of drug exposure. Additional wells containing cells only (untreated control) or medium only (background medium control) were used as controls. Absorbance at 490 nm (A490) was measured using a spectrophotometer (Dynatech Laboratories, Chantilly, Va.). Viability was estimated according to the following formula: […]
Briefly, the cellular fraction affected (Fa) was calculated based on an MTS assay after exposing cells to the drugs alone or in combination at a given dose compared to untreated cells, using the formula: Fa=100−% Viable Cells. Fa values were entered into Calcusyn software (Biosoft, Ferguson, Mo. and Cambridge, United Kingdom) to obtain CI values. CI values <1.0 indicated a synergistic effect of the drugs used in combination. For Inhibitory Concentration, or IC, calculations, dose-effect curves for MAL3-101, MG-132, 17-AAG, and their combinations were used to interpolate the median inhibitory concentration that caused 30% (IC30), 50% (IC50), and 70% (IC70) reductions in the % viable cells compared to untreated cells.
Cells (1×10^5) were plated in 96-well microtiter plates (Costar, Cambridge, Mass.) in 100 μL, of growth medium and exposed for indicated periods to various concentrations of compounds or their combinations. Control cells were cultured in DMSO. All studies were performed in triplicate and repeated at least three times independently. Survival was measured by an MTS assay (Promega, Madison, Wis.) as per the manufacturer's directions. The absorbance (A450) ratio of treated to untreated cells, after the subtraction of background absorbance, was multiplied by 100 to obtain percent cell survival. Cell death was measured by trypan blue dye exclusion in identically plated cultures.
DMSO-treated cultures were compared to drug-treated cultures by Student's t tests or by Dunnett's post-hoc test following significant repeated-measures one-way analysis of variance. All tests were two-tailed, and statistical significance was set at P≦0.05. Isobologram analysis was performed to derive combination index (CI) values based upon the Chou-Talalay method using CalcuSyn software (Biosoft, Ferguson, Mo. and Cambridge, United Kingdom) as described in L. Catley, E. Weisberg, T. Kiziltepe, Y. T. Tai, T. Hideshima, P. Neri, P. Tassone, P. Atadja, D. Chauhan, N. C. Munshi, K. C. Anderson, Aggresome induction by proteasome inhibitor Bortezomib and {alpha}-tubulin hyperacetylation by tubulin deacetylase (TDAC) inhibitor LBH589 are synergistic in myeloma cells, Blood (2006), which is incorporated herein by reference.

[2] = test system: XBP-1 mRNA splicing; experiment: RT-PCR analysis of XBP-1 mRNA splicing (UPR) in NCI-H929; type: cell-based, human
Experimental: (§1) Total RNA was prepared from NCI-H929 and HEK293 cells using TRIzol reagent (Invitrogen, Carlsbad, Calif.) following exposure to MAL3-101, MG-132, and 17-AAG alone and in combination at the indicated time points. Tunicamycin was used at varying concentrations.
(§2) Total RNAs were used for the first-strand synthesis with the Superscript reverse transcriptase (Invitrogen, Carlsbad, Calif.). PCR primers (5′-[…]-3′ [Seq. ID No. 1] and 5′-[…]-3′ [Seq. ID No. 2]) encompassing the missing sequences in XPB-1s were used for the PCR amplification with AmpliTaq Gold polymerase (Applied Biosystem, Foster City, Calif.) with a probe set spanning the spliced-out region. PCR products were separated by electrophoresis on a 3% agarose gel (Agarose-1000, Invitrogen) and visualized them by ethidium bromide staining to assess the degree of X-box binding protein-1 unspliced (XBP-1u, ˜280 bp) and spliced (XBP-1s, ˜265 bp) mRNA.
Unspliced (XBP-1u, 285 bp) and spliced (XBP-1s, 259 bp) XBP-1 mRNA levels of treated NCI-H929 were determined by PCR amplification of total RNA that was reverse transcribed by SuperScript Reverse Transcriptase (Invitrogen, Carlsbad, Calif.). PCR primers (5′-[…]-3′ [Seq. ID No. 1] and 5′-[…]-3′ [Seq. ID No. 2]), which flank the 26-nt intron of XBP1 mRNA, were used for PCR amplification with Ex Taq polymerase (Takara Bio, Shiga, Japan).

[3] = test system: BiP; experiment: Levels of ER lumenal chaperone BiP in NCI-H929; type: cell-based, human; conditions: NCI-H929, data not shown
[4] = test system: XBP-1 splicing; experiment: RT-PCR analysis of XBP-1 splicing in HEK293; type: cell-based; conditions: HEK293, 6 hours
Experimental: as §1, §2

[5] = test system: Hsp70; experiment: Hsp70 modulation

## C=CCNC1=C2C[C@@H](C)C[C@H](OC)[C@H](O)[C@@H](C)/C=C(\C)[C@H](OC(N)=O)[C@@H](OC)/C=C\C=C(/C)C(=O)NC(=CC1=O)C2=O [17-AAG, 17-allylamino-17-demethoxygeldanamycin]
[1]; read-out: IC50 (reduction of % viable cells), single agent, NCI-H929, 40 h exposure, MTS assay, agent alone
  IC50: 400 nM
[1]; read-out: IC50 of 17-AAG in combination with 5 μM MAL3-101, NCI-H929, MTS, plus 5 μM MAL3-101
  IC50: 300 nM
[1]; read-out: IC50 of 17-AAG in combination with 10 μM MAL3-101, NCI-H929, 40 h, MTS, plus 10 μM MAL3-101
  IC50: 30 nM
[2]; NCI-H929, early time points (4 h), concentrations that gave synergistic cytotoxicity
  XBP-1 mRNA splicing at early time points: no XBP-1 mRNA splicing was observed
[3]
  levels of BiP: did not change

## tunicamycin [reference compound]
[2]; NCI-H929, 5 μg/ml, 4 h
  XBP-1 mRNA splicing, positive control: induced XBP-1 mRNA splicing
[4]
  XBP-1 splicing in HEK293: Stronger XBP-1 splicing was observed

## CC(C)(C)NC(=O)C(c1ccc(I)cc1)N(CCN1CCOCC1)C(=O)CCCNC(=O)c1ccccc1 (stereo not drawn) [MAL3-51]
[1]; NCI-H929, 10 or 20 μM, 40 h, MTS
  response of percent viability: no response
[5]
  potency as Hsp70 modulator relative to MAL3-101: less potent Hsp70 antagonist than MAL3-101; also recorded: substantially less potent Hsp70 modulator

— patent US8754094B2, “Methods for heat shock protein dependent cancer treatment” (The Research Foundation of State University of New York, priority 2007, dated 2014)
